Source: patent US20230103549A1, “OVERLAPPING THERAPEUTIC STRATEGIES FOR CYSTINOSIS TREATMENT AND COSMETIC SKIN DARKENING” (Whitehead Institute for Biomedical Research, priority 2019, published 2023)

How the values were obtained:
[1] = target: T1, plasma membrane-localized MFSD12 (Homo sapiens, UniProt Q6NUT3, DEL167-169/L256A/L257A/Y182H); experiment: Plasma membrane cellular cysteine uptake assay (MFSD12^PM); assay type: cell-based; settings: HEK-293T cells expressing MFSD12^PM; 500 μM cold cysteine for competition
T1 construct: expressed in transfected cells; host or cells: HEK-293T cells transiently transfected with the pRK5-HA-MFSD12 LL253-254AA plasmid (PEI)
T1 sequence (Q6NUT3 with tags, fused parts or gaps DEL167-169/Y182H/L256A/L257A): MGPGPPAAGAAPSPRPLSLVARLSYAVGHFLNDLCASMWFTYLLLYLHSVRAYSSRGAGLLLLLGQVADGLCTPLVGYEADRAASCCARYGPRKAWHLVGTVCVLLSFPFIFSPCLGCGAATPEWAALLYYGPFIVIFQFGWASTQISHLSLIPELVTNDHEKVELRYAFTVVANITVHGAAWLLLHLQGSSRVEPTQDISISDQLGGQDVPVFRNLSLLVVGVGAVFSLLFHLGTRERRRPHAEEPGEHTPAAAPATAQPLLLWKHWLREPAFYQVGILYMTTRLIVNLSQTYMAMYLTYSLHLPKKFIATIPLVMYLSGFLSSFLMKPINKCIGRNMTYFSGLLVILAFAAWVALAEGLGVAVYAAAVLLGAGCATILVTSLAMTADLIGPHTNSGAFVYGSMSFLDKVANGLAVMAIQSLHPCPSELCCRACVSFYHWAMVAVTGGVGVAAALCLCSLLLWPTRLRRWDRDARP
Method: 3 million HEK-293T cells were plated in 10 cm dishes. Cells were transfected with 3 μg of plasmid with PEI (3 μg per 1 μg plasmid) and scraped 48 hours post-transfection into ice cold KPBS. After washing twice, cells were resuspended in LysoBuffer supplemented with 2.5 μM Erastin (MilliporeSigma), 4 mM leucine, and 3 mM serine. Assays were started with the addition of cold cysteine (10 μM for transport conditions and 500 μM for competition) and 50 μCi/mL (<100 pM) [^35S]-cysteine. Samples were incubated at 30° C. and aliquots were taken at indicated time points. Aliquoted cells were harvested by centrifugation at 1,000×g for 30 seconds at 4° C. and washed twice in ice-cold PBS. Cell pellets were resuspended in water before mixing into scintillation fluid and measuring scintillation counts (TriCarb T9000TR, Perkin-Elmer).

MFSD12 = target: T2, MFSD12 (Homo sapiens, UniProt Q6NUT3); experiment: Cysteine uptake assay into isolated lysosomes; assay type: biochemical; settings: 500 μM unlabeled cysteine; lysosomes from HEK-293T cells; 15-minute transport assay
T2 construct: isolate large quantities of lysosomes from wild-type and MFSD12 knock-out HEK-293T cells; endogenous in cells; host or cells: suspension-adapted HEK-293T cells; lysosomes purified by differential and OptiPrep gradient centrifugation
T2 sequence (Q6NUT3 whole entry): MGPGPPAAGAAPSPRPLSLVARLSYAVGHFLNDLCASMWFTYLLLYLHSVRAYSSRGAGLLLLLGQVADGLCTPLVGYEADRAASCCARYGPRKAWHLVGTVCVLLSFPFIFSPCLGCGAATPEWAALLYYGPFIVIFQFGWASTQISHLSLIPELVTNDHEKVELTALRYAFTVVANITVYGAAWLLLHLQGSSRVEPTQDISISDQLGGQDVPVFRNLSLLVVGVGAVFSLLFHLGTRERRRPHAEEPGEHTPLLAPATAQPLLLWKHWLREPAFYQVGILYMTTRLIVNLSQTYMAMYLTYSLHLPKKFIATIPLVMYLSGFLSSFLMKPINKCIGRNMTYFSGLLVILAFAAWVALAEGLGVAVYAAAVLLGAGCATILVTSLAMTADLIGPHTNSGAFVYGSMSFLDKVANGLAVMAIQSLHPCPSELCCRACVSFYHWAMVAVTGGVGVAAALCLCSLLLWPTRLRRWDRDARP
Method: Lysosomal purification protocols were adapted from previous protocols (Graham, 2001). 500 million suspension-adapted HEK-293T cells were spun down, washed in ice-cold PBS, and resuspended in 15 mL homogenization buffer (250 mM sucrose; 20 mM HEPES, pH 7.4; 1 mM EDTA) supplemented with protease inhibitor tablets (Roche). Cells were dounced 10 times in a lose fitting glass dounce and the resulting lysate was centrifuged at 1,500×g for 10 minutes at 4° C. After transferring the supernatant, 15 mL homogenization buffer was used to resuspend the pellet, and douncing and centrifugation were repeated. Supernatants from three successive rounds of homogenization and centrifugation were pooled and centrifuged a final time before transferring ‘post-nuclear supernatant’ to the subsequent step. ‘Post-nuclear supernatant’ was centrifuged at 20,000×g for 10 minutes at 4° C. to pellet organelles. To further wash organelles, the pellet was resuspended in 45 mL homogenization buffer and spun again at 20,000×g for 10 minutes at 4° C. The resulting pellet or ‘light mitochondrial fraction’ was resuspended in 9% OptiPrep (Thermo Fisher) prepared in Dilution Buffer (250 mM sucrose; 40 mM HEPES, pH 7.4; 2 mM EDTA) and overlaid on top of a discontinuous gradient of 18, 16, 14, 12, and 10% OptiPrep prepared in Dilution Buffer. […]

competition of MFSD12-induced [35S]-cysteine transport [1]: completely competed
Structure (SMILES): N[C@@H](CS)C(=O)O [cysteine]
competition of [35S]-cysteine signal in lysosomes (MFSD12): reduce the [^35S] signal in lysosomes having MFSD12 to the same level as those in lysosomes lacking it
